Laboratory results: paper PMC10303221, “Synthesis, In Silico Studies, and Antioxidant and Tyrosinase Inhibitory Potential of 2-(Substituted Phenyl) Thiazolidine-4-Carboxamide Derivatives” (Pharmaceuticals, 2023)
≈ marks a conversion by molar mass, not a printed value.

Assays:
[1] = DPPH free radical scavenging assay (antioxidant activity); conditions: mean ± SD, triplicate; 30 min at 37 °C, absorbance 517 nm
Text: The 2,2-Diphenyl-1-picrylhydrazyl (DPPH) radical was used to evaluate the antioxidant potential of the synthesized compounds. Different concentrations of the samples were employed in the subject assay. […] The principle of this assay is related to the conversion of the purple-colored free radical into the pale-yellow-colored reduced form, owing to the action of a proton donating or antioxidant agent. […] Alternatively, compound 1d also acquired hydroxy groups on both mentioned positions. These groups are categorized as strong proton donors which tend to participate in the reduction in DPPH free radicals by donating protons.
The synthesized compounds were evaluated for their antioxidant activity by measuring their ability to scavenge DPPH free radicals. A previously described protocol was followed for this purpose. An amount of 20 µL of each of the four different dilutions of test samples (200, 66.66, 22.22, and 7.41 µg/mL) was added to 96-well plates containing 180 µL of DPPH solution. The absorbance at 517 nm was determined after incubating for 30 min at 37 °C. Ascorbic acid (1 mg/mL DMSO) was used as the positive control, and the assay was performed in triplicate. The IC50 values were also calculated using the % of inhibitions at different concentrations using Table Curve 2D Windows version 4.07.

mushroom tyrosinase = mushroom tyrosinase (Agaricus bisporus, UniProt C7FF04); test: Mushroom tyrosinase inhibitory assay (L-DOPA substrate, dopachrome absorbance at 492 nm); type: biochemical; conditions: compared with kojic acid
Description: An evaluation of the inhibitory effect on the tyrosinase enzyme was conducted on mushroom tyrosinase.
A tyrosinase inhibitory assay was conducted with the mushroom tyrosinase enzyme. An amount of 20 µL of mushroom tyrosinase (30 U/mL) was combined with 140 µL (20 mM, pH 6.8) of phosphate buffer. An amount of 20 µL of inhibitor solution was added to a 96-well microplate. Then pre-incubation at room temperature was conducted for 10 min. A solution of L-DOPA (20 μL—0.85 mM) was added. This was followed by the incubation of the plate for 20 min at 25 °C. Using a microplate reader (OPTIMax, Tunable), the absorbance of dopa-chrome was recorded at 492 nm.
The absorbance of dopa-chrome was measured at 492 nm using a microplate reader (OPTIMax, Tunable, San Jose, CA, USA). […] The IC50 values were used to express the extent of inhibition. The experiments were performed in triplicate for each concentration.

Sequence of mushroom tyrosinase (C7FF04 2-392): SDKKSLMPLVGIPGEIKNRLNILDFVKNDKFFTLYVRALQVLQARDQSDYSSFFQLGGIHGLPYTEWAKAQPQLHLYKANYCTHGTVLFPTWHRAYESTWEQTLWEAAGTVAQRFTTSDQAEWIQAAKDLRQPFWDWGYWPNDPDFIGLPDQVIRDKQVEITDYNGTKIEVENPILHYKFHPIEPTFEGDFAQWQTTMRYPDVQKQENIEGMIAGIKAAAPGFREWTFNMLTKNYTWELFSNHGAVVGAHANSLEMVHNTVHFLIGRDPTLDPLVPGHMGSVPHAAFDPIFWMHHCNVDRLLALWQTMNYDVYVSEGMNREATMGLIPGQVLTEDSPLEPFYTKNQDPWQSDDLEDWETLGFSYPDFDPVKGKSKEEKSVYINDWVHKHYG

Compound	melting point [°C]	IC50 in the DPPH free radical scavenging assay [1] [µg/mL]	Tyrosinase inhibitory activity, in words (mushroom tyrosinase)
O=C(O)c1ccc(NC(=O)C2CSC(c3ccccc3O)N2)cc1 (stereo not drawn) [Compound 1a, 4-[2-(2-Hydroxyphenyl)-1,3-thiazolidine-4-carbonyl]-aminobenzoic Acid]	135 to 136		
O=C(C1CSC(c2ccccc2O)N1)N1CCOCC1 (stereo not drawn) [Compound 1b, [2-(2-Hydroxyphenyl)-1,3-thiazolidin-4-yl](morpholin-4-yl)-methanone]	128 to 129		
O=C(Nc1ccc(O)cc1)C1CSC(c2ccccc2O)N1 (stereo not drawn) [Compound 1c, 2-(2-Hydroxyphenyl)-N-(4-hydroxyphenyl)-1,3-thiazolidine-4-carboxamide]	109 to 111		
O=C(O)c1ccc(NC(=O)C2CSC(c3ccccc3O)N2)cc1O (stereo not drawn) [Compound 1d, 2-Hydroxy-4-[2-(2-hydroxyphenyl)-1,3-thiazolidine-4-carbonyl]-aminobenzoic Acid]	134 to 135	18.27 ± 1.1 (≈ 50.7 µM)	
COc1ccc(NC(=O)C2CSC(c3ccccc3O)N2)cc1 (stereo not drawn) [Compound 1e, 2-(2-Hydroxyphenyl)-N-(4-methoxyphenyl)-1,3-thiazolidine-4-carboxamide]	83 to 84		
COc1ccccc1C1NC(C(=O)Nc2ccc(C(=O)O)cc2)CS1 (stereo not drawn) [Compound 2a, 4-[2-(2-Methoxyphenyl)-1,3-thiazolidine-4-carbonyl]-aminobenzoic Acid]	116 to 117		moderate activity
COc1ccccc1C1NC(C(=O)Nc2ccc(C(=O)O)c(O)c2)CS1 (stereo not drawn) [Compound 2d, 2-Hydroxy-4-[2-(2-methoxyphenyl)-1,3-thiazolidine-4-carbonyl]-aminobenzoic Acid]	112 to 113	18.17 ± 1.0 (≈ 48.5 µM)	moderate activity
O=C(O)c1ccc(NC(=O)C2CSC(c3ccc(O)cc3)N2)cc1 (stereo not drawn) [Compound 3a, 4-[2-(4-Hydroxyphenyl)-1,3-thiazolidine-4-carbonyl]-aminobenzoic Acid]	164 to 166		
O=C(Nc1ccc(O)cc1)C1CSC(c2ccc(O)cc2)N1 (stereo not drawn) [Compound 3c, N,2-Bis(4-hydroxyphenyl)-1,3-thiazolidine-4-carboxamide]	174 to 176		
O=C(O)c1ccc(NC(=O)C2CSC(c3ccc(O)cc3)N2)cc1O (stereo not drawn) [Compound 3d, 2-Hydroxy-4-[2-(4-hydroxyphenyl)-1,3-thiazolidine-4-carbonyl]-aminobenzoic Acid]	130 to 131		
COc1ccc(NC(=O)C2CSC(c3ccc(O)cc3)N2)cc1 (stereo not drawn) [Compound 3e, 2-(4-Hydroxyphenyl)-N-(4-methoxyphenyl)-1,3-thiazolidine-4-carboxamide]	115 to 117		moderate activity
COc1ccc(C2NC(C(=O)Nc3ccc(C(=O)O)cc3)CS2)cc1 (stereo not drawn) [Compound 4a, 4-[2-(4-Methoxyphenyl)-1,3-thiazolidine-4-carbonyl]-aminobenzoic Acid]	94 to 95		
COc1ccc(C2NC(C(=O)Nc3ccc(C(=O)O)c(O)c3)CS2)cc1 (stereo not drawn) [Compound 4d, 2-Hydroxy-4-[2-(4-methoxyphenyl)-1,3-thiazolidine-4-carbonyl]-aminobenzoic Acid]	109 to 110		
COc1ccc(NC(=O)C2CSC(c3ccc(OC)cc3)N2)cc1 (stereo not drawn) [Compound 4e, N,2-Bis(4-methoxyphenyl)-1,3-thiazolidine-4-carboxamide]	129 to 131		moderate activity
O=C1O[C@H]([C@@H](O)CO)C(O)=C1O [ascorbic acid, reference compound]		7.83 ± 0.5 (≈ 44.5 µM)	
